# Results from article PMC6976587, “Conversion of Broad-Spectrum Antimicrobial Peptides into Species-Specific Antimicrobials Capable of Precisely Targeting Pathogenic Bacteria” (Scientific Reports, 2020).
# Residues, ends and D or L forms follow the SMILES beside them.
# Legend:
# [1] = system: E. faecalis ATCC 29212; type: cell-based, Enterococcus faecalis; conditions: ATCC 29212, 16 h
# Description: (§1) The antimicrobial activities of the peptides were investigated against the following bacteria: E. faecalis ATCC 29212, S. epidermidis ATCC 12228, S. aureus ATCC 29213, E. coli ATCC 25922, S. typhimurium […] and S. Pullorum […]. The MICs of the peptides were determined using a modified standard microtiter dilution method as described previously[29],[38]. Briefly, the microbial strains were cultured in MHB at 37 °C to reach mid-log phase and then diluted to 0.5-1×10^6 CFU/ml. 50 μL volumes of bacteria suspension were incubated in sterile 96-well plates with 50 μl of 2-fold serially diluted peptides at different concentrations (0.25-128 μM). Cultures with or without bacterial cells was employed as positive and negative controls, respectively. […] Each measurement was reproduced at least four times using three replicates.
# [2] = system: E. coli ATCC 25922; type: cell-based, Escherichia coli; conditions: ATCC 25922, 16 h
# Description: as §1
# [3] = system: S. typhimurium C7731; type: cell-based, Salmonella typhimurium; conditions: C7731, 16 h
# Description: as §1
# [4] = system: S. Pullorum C7913; type: cell-based, Salmonella Pullorum; conditions: C7913, 16 h
# Description: as §1
# [5] = system: S. aureus ATCC 29213; type: cell-based, Staphylococcus aureus; conditions: ATCC 29213, 16 h
# Description: as §1
# [6] = system: S. epidermidis ATCC 12228; type: cell-based, Staphylococcus epidermidis; conditions: ATCC 12228, 16 h
# Description: as §1
# [7] = system: panel of microbes (Gram-negative and Gram-positive bacteria); type: cell-based; conditions: 16 h
# Description: as §1
SMILES,MIC (μM) Gram-positive E. faecalis 25922 [1] [µM],MIC (μM) Gram-negative E. coli 12228 [2] [µM],MIC (μM) Gram-negative S. typhimurium 29213 [3] [µM],MIC (μM) Gram-negative S. Pullorum 43300 [4] [µM],MIC (μM) Gram-positive S. aureus 1005 [5] [µM],MIC (μM) Gram-positive S. epidermidis 7913 [6] [µM],MICs against the panel of microbes (range) [7] [µM]
NCCCC[C@H](NC(=O)CNC(=O)[C@H](CC(N)=O)NC(=O)[C@H](CCC(=O)O)NC(=O)[C@H](Cc1c[nH]c2ccccc12)NC(=O)[C@H](CCCCN)NC(=O)[C@H](Cc1c[nH]c2ccccc12)NC(=O)[C@H](CCCCN)NC(=O)[C@@H](N)Cc1c[nH]c2ccccc12)C(=O)N[C@@H](Cc1c[nH]c2ccccc12)C(=O)N[C@@H](CCCCN)C(=O)N[C@@H](Cc1c[nH]c2ccccc12)C(=O)N[C@@H](CCC(N)=O)C(=O)N[C@@H](Cc1c[nH]c2ccccc12)C(=O)O [C3] (H-WKWKWENGKWKWQW-OH),>128,32,64,16,>128,>128,–
NCCCC[C@H](NC(=O)CNC(=O)[C@H](CC(N)=O)NC(=O)[C@H](CCC(=O)O)NC(=O)[C@H](Cc1c[nH]c2ccccc12)NC(=O)[C@H](CCCCN)NC(=O)[C@H](Cc1c[nH]c2ccccc12)NC(=O)[C@H](CCCCN)NC(=O)[C@@H](N)Cc1c[nH]c2ccccc12)C(=O)N[C@@H](Cc1c[nH]c2ccccc12)C(=O)N[C@@H](CCCCN)C(=O)N[C@@H](Cc1c[nH]c2ccccc12)C(=O)N[C@@H](CCCCN)C(=O)N[C@@H](Cc1c[nH]c2ccccc12)C(=O)O [C4] (H-WKWKWENGKWKWKW-OH),64,2,32,8,32,32,–
CC(C)C[C@H](NC(=O)CNC(=O)CNC(=O)CNC(=O)[C@H](Cc1c[nH]c2ccccc12)NC(=O)[C@H](CCCCN)NC(=O)[C@H](Cc1c[nH]c2ccccc12)NC(=O)[C@H](CCCCN)NC(=O)[C@H](Cc1c[nH]c2ccccc12)NC(=O)[C@H](CCCCN)NC(=O)CNC(=O)[C@H](CC(N)=O)NC(=O)[C@H](CCCCN)NC(=O)[C@H](Cc1c[nH]c2ccccc12)NC(=O)[C@H](CCCCN)NC(=O)[C@H](Cc1c[nH]c2ccccc12)NC(=O)[C@H](CCCCN)NC(=O)[C@@H](N)Cc1c[nH]c2ccccc12)C(=O)N[C@H](C(=O)N[C@H](C(=O)N[C@@H](CC(C)C)C(=O)N[C@H](C(=O)N[C@@H](Cc1ccccc1)C(=O)N[C@H](C(=O)O)C(C)C)C(C)C)[C@@H](C)O)C(C)C [C6-cCF10] (H-WKWKWKNGKWKWKWGGGLVTLVFV-OH),16,2,>128,8,8,32,–
NCCCC[C@H](NC(=O)CNC(=O)[C@H](CC(N)=O)NC(=O)[C@H](CCCCN)NC(=O)[C@H](Cc1c[nH]c2ccccc12)NC(=O)[C@H](CCCCN)NC(=O)[C@H](Cc1c[nH]c2ccccc12)NC(=O)[C@H](CCCCN)NC(=O)[C@@H](N)Cc1c[nH]c2ccccc12)C(=O)N[C@@H](Cc1c[nH]c2ccccc12)C(=O)N[C@@H](CCCCN)C(=O)N[C@@H](Cc1c[nH]c2ccccc12)C(=O)N[C@@H](CCCCN)C(=O)N[C@@H](Cc1c[nH]c2ccccc12)C(=O)O [C6] (H-WKWKWKNGKWKWKW-OH),16,2,8,4,4,8,2 to 16
"CC(C)C[C@H](NC(=O)[C@H](CCCNC(=N)N)NC(=O)CNC(=O)CNC(=O)[C@@H](N)CCCNC(=N)N)C(=O)N[C@H]1CSSC[C@@H](C(=O)N[C@H](C(=O)NCC(=O)N[C@@H](CCCNC(=N)N)C(N)=O)C(C)C)NC(=O)[C@H](C(C)C)NC(=O)[C@@H]2CSSC[C@H](NC(=O)[C@H](Cc3ccc(O)cc3)NC1=O)C(=O)N[C@@H](CCCNC(=N)N)C(=O)N[C@@H](CCCNC(=N)N)C(=O)N[C@@H](CCCNC(=N)N)C(=O)N[C@@H](Cc1ccccc1)C(=O)N2 [PG-1, reference compound]",4,2,8,8,8,16,–
"CC(C)C[C@H](NC(=O)[C@@H](NC(=O)[C@@H](NC(=O)[C@@H](N)CC(C)C)C(C)C)[C@@H](C)O)C(=O)N[C@H](C(=O)N[C@@H](Cc1ccccc1)C(=O)N[C@H](C(=O)O)C(C)C)C(C)C [cCF10, reference compound] (H-LVTLVFV-OH)",>128,>128,>128,>128,>128,>128,–
CC(C)C[C@H](NC(=O)[C@@H](NC(=O)[C@@H](NC(=O)[C@@H](N)CC(C)C)C(C)C)[C@@H](C)O)C(=O)N[C@H](C(=O)N[C@@H](Cc1ccccc1)C(=O)N[C@H](C(=O)NCC(=O)NCC(=O)NCC(=O)N[C@@H](Cc1c[nH]c2ccccc12)C(=O)N[C@@H](CCCCN)C(=O)N[C@@H](Cc1c[nH]c2ccccc12)C(=O)N[C@@H](CCCCN)C(=O)N[C@@H](Cc1c[nH]c2ccccc12)C(=O)N[C@@H](CCC(=O)O)C(=O)N[C@@H](CC(N)=O)C(=O)NCC(=O)N[C@@H](CCCCN)C(=O)N[C@@H](Cc1c[nH]c2ccccc12)C(=O)N[C@@H](CCCCN)C(=O)N[C@@H](Cc1c[nH]c2ccccc12)C(=O)N[C@@H](CCC(N)=O)C(=O)N[C@@H](Cc1c[nH]c2ccccc12)C(=O)O)C(C)C)C(C)C [cCF10-C3] (H-LVTLVFVGGGWKWKWENGKWKWQW-OH),>128,>128,>128,>128,>128,>128,–
CC(C)C[C@H](NC(=O)[C@@H](NC(=O)[C@@H](NC(=O)[C@@H](N)CC(C)C)C(C)C)[C@@H](C)O)C(=O)N[C@H](C(=O)N[C@@H](Cc1ccccc1)C(=O)N[C@H](C(=O)NCC(=O)NCC(=O)NCC(=O)N[C@@H](Cc1c[nH]c2ccccc12)C(=O)N[C@@H](CCCCN)C(=O)N[C@@H](Cc1c[nH]c2ccccc12)C(=O)N[C@@H](CCCCN)C(=O)N[C@@H](Cc1c[nH]c2ccccc12)C(=O)N[C@@H](CCC(=O)O)C(=O)N[C@@H](CC(N)=O)C(=O)NCC(=O)N[C@@H](CCCCN)C(=O)N[C@@H](Cc1c[nH]c2ccccc12)C(=O)N[C@@H](CCCCN)C(=O)N[C@@H](Cc1c[nH]c2ccccc12)C(=O)N[C@@H](CCCCN)C(=O)N[C@@H](Cc1c[nH]c2ccccc12)C(=O)O)C(C)C)C(C)C [cCF10-C4] (H-LVTLVFVGGGWKWKWENGKWKWKW-OH),8,64,>128,>128,>128,>128,–
CC(C)C[C@H](NC(=O)[C@@H](NC(=O)[C@@H](NC(=O)[C@@H](N)CC(C)C)C(C)C)[C@@H](C)O)C(=O)N[C@H](C(=O)N[C@@H](Cc1ccccc1)C(=O)N[C@H](C(=O)NCC(=O)NCC(=O)NCC(=O)N[C@@H](Cc1c[nH]c2ccccc12)C(=O)N[C@@H](CCCCN)C(=O)N[C@@H](Cc1c[nH]c2ccccc12)C(=O)N[C@@H](CCCCN)C(=O)N[C@@H](Cc1c[nH]c2ccccc12)C(=O)N[C@@H](CCCCN)C(=O)N[C@@H](CC(N)=O)C(=O)NCC(=O)N[C@@H](CCCCN)C(=O)N[C@@H](Cc1c[nH]c2ccccc12)C(=O)N[C@@H](CCCCN)C(=O)N[C@@H](Cc1c[nH]c2ccccc12)C(=O)N[C@@H](CCCCN)C(=O)N[C@@H](Cc1c[nH]c2ccccc12)C(=O)O)C(C)C)C(C)C [cCF10-C6] (H-LVTLVFVGGGWKWKWKNGKWKWKW-OH),4,4,>128,16,32,32,–
CC[C@H](C)[C@H](NC(=O)[C@H](Cc1ccccc1)NC(=O)[C@H](CS)NC(=O)[C@@H](NC(=O)[C@H](CO)NC(=O)[C@@H](N)Cc1ccc(O)cc1)[C@@H](C)O)C(=O)N[C@@H](CCSC)C(=O)NCC(=O)NCC(=O)NCC(=O)N[C@@H](Cc1c[nH]c2ccccc12)C(=O)N[C@@H](CCCCN)C(=O)N[C@@H](Cc1c[nH]c2ccccc12)C(=O)N[C@@H](CCCCN)C(=O)N[C@@H](Cc1c[nH]c2ccccc12)C(=O)N[C@@H](CCC(=O)O)C(=O)N[C@@H](CC(N)=O)C(=O)NCC(=O)N[C@@H](CCCCN)C(=O)N[C@@H](Cc1c[nH]c2ccccc12)C(=O)N[C@@H](CCCCN)C(=O)N[C@@H](Cc1c[nH]c2ccccc12)C(=O)N[C@@H](CCCCN)C(=O)N[C@@H](Cc1c[nH]c2ccccc12)C(=O)O [random-C4] (H-YSTCFIMGGGWKWKWENGKWKWKW-OH),>128,32,>128,>128,>128,>128,–
